Several values for one entry are separate records, joined by “and”; a condition that tells them apart may be missing. Equal entries are not always repeated.
Columns and labels:
[1] = tested on: T1, Plasmodium falciparum Dd2-attB-ScDHODH (transgenic line expressing yeast DHODH), asexual blood stages; experiment: organism not typed; parameters: replicate k of 3 (each line is one of three independent assays; the three lines of one compound and parasite line follow each other)
T1 construct: Dd2-attB-ScDHODH, the transgenic line that expresses yeast DHODH
Method in brief: (§1)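 Three independent runs, compound subset only; parental vs ScDHODH line compared by two-sided Student's t-test.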

[2] = tested on: T2, Plasmodium falciparum Dd2-attB (parental line), asexual blood stages; experiment: microbe, parasite or virus in culture; parameters: replicate k of 3 (each line is one of three independent assays; the three lines of one compound and parasite line follow each other); conditions: n = 1; for Individual replicates / Log AC50 (M): 72 h; for AC50: Plasmodium falciparum, DD2, 72 h, read-out: Individual replicates / Log AC50 (converted)
T2 construct: Dd2-attB, the isogenic parental line
Method in brief: as §1

[3] = 72 h; n = 1; read-out: Individual replicates / Log AC50 (converted)

SMILES | Individual replicates / Log AC50 (M) ([1]; 72 h, n = 1) | AC50 [1, 3] | Individual replicates / Log AC50 (M) [2] | AC50 [2] | Individual replicates / Log AC50 (M) ([1]; 72 h; n = 1)
CN(C)CCNC(=O)c1cccc(-c2cc(O)c3ncccc3c2)c1 [NCGC00244526-01] | -4.7986 Log AC50 (M) | 17.8 µM | -5.0986 Log AC50 (M) and -4.9486 Log AC50 (M) | 14.2 µM | 
CN(C)CCCCNC(=O)c1cccc(-c2cc(O)c3ncccc3c2)c1 [NCGC00244528-01] | -4.7486 Log AC50 (M) | 15.9 µM | -4.8986 Log AC50 (M) and -4.8486 Log AC50 (M) | 17.8 µM | 
O=C(c1cccc(-c2cc(O)c3ncccc3c2)c1)N1CCCCC1 [NCGC00244533-01] | -5.1486 Log AC50 (M) and -4.9486 Log AC50 (M) | 7.1 µM | -5.0486 Log AC50 (M) and -5.0986 Log AC50 (M) | 6.33 µM | 
O=C(c1cccc(-c2cc(O)c3ncccc3c2)c1)N1CCOCC1 [NCGC00244534-01] | -5.0486 Log AC50 (M) | 14.2 µM | -5.0486 Log AC50 (M) and -5.0986 Log AC50 (M) | 12.6 µM | 
O=C(NCCN1CCOCC1)c1cccc(-c2cc(O)c3ncccc3c2)c1 [NCGC00244535-01] | -5.1986 Log AC50 (M) and -4.7986 Log AC50 (M) |  | -4.8986 Log AC50 (M) and -5.0986 Log AC50 (M) | 6.33 µM | 
O=C(NCCCc1ccccc1)c1cccc(-c2cc(O)c3ncccc3c2)c1 [NCGC00244536-01] | -4.8986 Log AC50 (M) |  | -5.2486 Log AC50 (M) and -5.1986 Log AC50 (M) | 7.1 µM | 
CN(C)CC1CCN(C2CCN(C(=O)c3cccc(-c4cc(O)c5ncccc5c4)c3)CC2)CC1 [NCGC00247736-01] | -4.7986 Log AC50 (M) and -5.0486 Log AC50 (M) |  | -5.3486 Log AC50 (M) and -4.8486 Log AC50 (M) and -5.1486 Log AC50 (M) |  | 
CN(C)CC1CCCN(C2CCN(C(=O)c3cccc(-c4cc(O)c5ncccc5c4)c3)CC2)C1 (centres unmarked) [NCGC00247737-01] | -5.4486 Log AC50 (M) | 6.33 µM | -5.3986 Log AC50 (M) and -5.3486 Log AC50 (M) | 5.64 µM | 
O=C(Nc1ccccn1)c1ccc(-c2cc(O)c3ncccc3c2)cc1 [NCGC00247739-01] | -4.7986 Log AC50 (M) | 8.94 µM | -4.9986 Log AC50 (M) and -4.8986 Log AC50 (M) | 7.97 µM | 
CN1CCN(CCCNC(=O)c2cccc(-c3cc(O)c4ncccc4c3)c2)CC1 [NCGC00247740-01] | -4.7486 Log AC50 (M) and -4.7986 Log AC50 (M) | 17.8 µM | -4.7986 Log AC50 (M) and -4.7486 Log AC50 (M) | 15.9 µM | 
O=C(NCCCN1CCCC1)c1cccc(-c2cc(O)c3ncccc3c2)c1 [NCGC00247742-01] |  | 17.8 µM | -4.7986 Log AC50 (M) | 17.8 µM | -4.7486 Log AC50 (M)
CC(c1ccccc1)N1CCN(c2cnc3c(O)ccc(C(=O)O)c3c2)CC1 (centres unmarked) [NCGC00247745-01] | -4.7986 Log AC50 (M) and -4.7486 Log AC50 (M) | 17.8 µM | -4.8486 Log AC50 (M) and -4.7486 Log AC50 (M) | 15.9 µM | 
CN(C)CCCCCNC(=O)c1cccc(-c2cc(O)c3ncccc3c2)c1 [NCGC00247747-01] |  | 14.2 µM | -4.8486 Log AC50 (M) | 14.2 µM | 
Oc1cc(-c2ccc(CN3CCOCC3)cc2)cc2cccnc12 [NCGC00247750-01] | -5.2986 Log AC50 (M) and -5.1486 Log AC50 (M) | 5.03 µM | -5.2986 Log AC50 (M) and -5.3986 Log AC50 (M) | 5.03 µM | 
O=C(O)c1ccc(O)c2ncc(N3CCCN(CCCc4ccncc4)CC3)cc12 [NCGC00247752-01] | -4.7986 Log AC50 (M) and -4.7486 Log AC50 (M) | 17.8 µM | -4.7486 Log AC50 (M) | 12.6 µM | 
CN(C)[S+](=O)([O-])c1cccc(-c2cc(O)c3ncccc3c2)c1 [NCGC00247754-01] | -5.2986 Log AC50 (M) and -5.1486 Log AC50 (M) | 5.03 µM | -5.2986 Log AC50 (M) | 5.64 µM | 
Oc1cc(-c2ccc(CN3CCOCC3)c(F)c2)cc2cccnc12 [NCGC00247756-01] | -5.2986 Log AC50 (M) and -5.2486 Log AC50 (M) | 5.03 µM | -5.2986 Log AC50 (M) | 5.03 µM | 
O=C(NCCCN1CCCCCC1)c1cccc(-c2cc(O)c3ncccc3c2)c1 [NCGC00247760-01] |  | 15.9 µM | -4.8986 Log AC50 (M) and -4.7486 Log AC50 (M) | 20 µM | 

SMILES | Individual replicates / Log AC50 (M) ([1]; 72 h, n = 1) | AC50 [1, 3] | Individual replicates / Log AC50 (M) [2] | AC50 [2] | Individual replicates / Log AC50 (M) ([1]; 72 h; n = 1)
Cc1ccc(CN2CCN(c3cnc4c(O)ccc(C(=O)O)c4c3)CC2)cc1 [NCGC00249379-01] | -4.8486 Log AC50 (M) and -4.7486 Log AC50 (M) | 15.9 µM | -4.7986 Log AC50 (M) | 17.8 µM | 
CC1CN(c2cnc3c(O)ccc(C(=O)O)c3c2)CCN1Cc1ccccc1 (centres unmarked) [NCGC00249383-01] | -4.7986 Log AC50 (M) | 17.8 µM | -4.7486 Log AC50 (M) and -4.8486 Log AC50 (M) | 17.8 µM | 
O=C(NCCC12CCCN1CCC2)c1cccc(-c2cc(O)c3ncccc3c2)c1 [NCGC00249386-01] | -4.6986 Log AC50 (M) | 17.8 µM | -4.7986 Log AC50 (M) | 17.8 µM | 
O=C(NCCCCCN1CCOCC1)c1cccc(-c2cc(O)c3ncccc3c2)c1 [NCGC00249387-01] | -4.6986 Log AC50 (M) and -5.0486 Log AC50 (M) and -4.7986 Log AC50 (M) |  | -4.9986 Log AC50 (M) | 7.1 µM | 
COC(=O)c1ccc(O)c2ncc(N3CCOCC3)cc12 [NCGC00262492-01] | -5.2986 Log AC50 (M) | 5.64 µM | -5.3486 Log AC50 (M) and -5.3986 Log AC50 (M) | 5.64 µM | 
CCOC(=O)CCNc1cc(N2CCc3ccccc3CC2)nc(-c2ccccn2)n1 [NCGC00344626-04] | -5.2986 Log AC50 (M) and -4.9486 Log AC50 (M) |  | -5.2986 Log AC50 (M) and -5.2486 Log AC50 (M) and -5.0486 Log AC50 (M) |  | 
CCOC(=O)CCNc1cc(N2CCc3ccccc3CC2)nc(-c2cccnc2)n1 [NCGC00351550-01] | -4.7986 Log AC50 (M) |  | -4.8986 Log AC50 (M) | 14.2 µM | 
CCOC(=O)CCNc1cc(N2CCc3ccccc3CC2)nc(-c2cccnc2)n1 [NCGC00351550-02] | -5.0986 Log AC50 (M) and -4.7986 Log AC50 (M) |  | -4.8486 Log AC50 (M) (2×) and -4.7486 Log AC50 (M) |  | 
O=C(NC1=CC(=O)c2ccccc2C1=O)c1ccccc1 [NCGC00357425-01] | -5.6486 Log AC50 (M) (2×) and -5.2986 Log AC50 (M) |  | -5.5986 Log AC50 (M) and -5.7986 Log AC50 (M) and -5.3486 Log AC50 (M) |  | 
CC(=O)Nc1cccc(-c2csc(Nc3cc(C)ccn3)n2)c1 [NCGC00357426-01] | -4.8486 Log AC50 (M) |  | -4.8486 Log AC50 (M) (2×) and -4.7986 Log AC50 (M) |  | 
Cn1cnc(-c2nccc3c(O)nc(OCCCC(F)(F)F)nc23)c1 [NCGC00381768-01] |  | 17.8 µM | -4.7486 Log AC50 (M) and -4.7986 Log AC50 (M) | 15.9 µM | -4.7486 Log AC50 (M)
CN(C)C(=S)SN(C)C(=O)Nc1ccccc1 [NCGC00386444-01] | -5.7986 Log AC50 (M) | 2.25 µM | -5.7986 Log AC50 (M) | 1.78 µM | 
C/C(=N\NC(=S)N1CCN(c2ccccn2)CC1)c1ccccn1 [NCGC00386445-01] |  | 4.48 µM | -5.3486 Log AC50 (M) | 4.48 µM | -5.3486 Log AC50 (M)
CN(C)c1ccc(-c2nc(-c3ccccc3O)n(Cc3ccccc3)n2)cc1 [NCGC00388637-01] | -5.6486 Log AC50 (M) and -6.0486 Log AC50 (M) and -6.1486 Log AC50 (M) |  | -6.0986 Log AC50 (M) | 0.797 µM | 
Cc1ccc(C(CCN2CCCCC2)c2cc3cccc(C(=O)O)c3[nH]2)cc1 (centres unmarked) [NCGC00389137-01] | -5.3486 Log AC50 (M) and -5.0486 Log AC50 (M) |  | -5.5486 Log AC50 (M) and -5.3986 Log AC50 (M) and -5.1486 Log AC50 (M) |  | 
c1ccc(CCn2nc(-c3ccccn3)nc2CCCN2CCCCC2)cc1 [NCGC00389173-01] | -5.2486 Log AC50 (M) and -5.3986 Log AC50 (M) and -5.0486 Log AC50 (M) |  | -5.2986 Log AC50 (M) and -5.0986 Log AC50 (M) and -5.4486 Log AC50 (M) |  | 
Cc1ccc(C(CCN2CCCCC2)c2cc3cccc(C(N)=O)c3[nH]2)cc1 (centres unmarked) [NCGC00389183-01] | -5.3486 Log AC50 (M) and -5.0986 Log AC50 (M) | 5.03 µM | -5.2486 Log AC50 (M) | 5.03 µM | 
O=C(O)c1ccc(N(CCN2CCC(F)(F)CC2)c2ccc(F)cc2)cn1 [NCGC00390011-01] |  | 17.8 µM | -4.7486 Log AC50 (M) | 20 µM | 

From publication PMC7822874, “Chemoprotective antimalarials identified through quantitative high-throughput screening of Plasmodium blood and liver stage parasites” (Scientific Reports, 2021)
